Reference: PMC4242290 (Nuclear Receptor Signaling, 2014)
Entries after “also recorded” stand apart in the source; their conditions may differ. Where a name gives a salt, the structure may show the parent alone. *1 amine or outer side, *2 acyl side, *3 side chain or, on linkers, in order; H or OH if unused. Where a SMILES comes first, the peptide text is derived from it. Bridges are numbered along the chain shown (N, C = ends). Roman numbers before positions name the chains, in order. [ ]: non-standard residue; d: D form. Actinocin(9to1) = Cc1c2oc3c(C)ccc(C(=O)[*:1])c3nc-2c(C(=O)[*:2])c(N)c1=O; NMeV = CN[C@H](C(=O)O)C(C)C; Sar = CNCC(=O)O

Key:
[1] = Phase II double-blind clinical trial; cited from earlier work
[2] = biological target: His6-hERβ LBD (Homo sapiens, UniProt Q92731); type: binding; conditions: for DSF primary screen: change in melting temperature of ERβ LBD: 500 µM
Chain of His6-hERβ LBD (Q92731 261-530): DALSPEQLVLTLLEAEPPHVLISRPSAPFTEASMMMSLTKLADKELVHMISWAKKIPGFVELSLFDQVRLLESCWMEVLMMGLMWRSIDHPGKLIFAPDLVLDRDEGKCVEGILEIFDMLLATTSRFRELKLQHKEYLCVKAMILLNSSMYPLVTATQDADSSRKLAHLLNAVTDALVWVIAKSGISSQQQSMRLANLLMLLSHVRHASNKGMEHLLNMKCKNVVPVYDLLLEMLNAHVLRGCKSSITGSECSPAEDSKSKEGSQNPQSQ

[3] = tested on: LNCaP cells; test: LNCaP cell proliferation; type: cell-based; conditions: 1 μM final concentration, 24 h treatment
[4] = biological target: T1, ERβ (Homo sapiens, UniProt Q92731); type: binding; conditions: for β-selectivity (fold): IC50 for ERα divided by IC50 for ERβ, from FP
T1 sequence (Q92731 whole entry, the tested form may be a part): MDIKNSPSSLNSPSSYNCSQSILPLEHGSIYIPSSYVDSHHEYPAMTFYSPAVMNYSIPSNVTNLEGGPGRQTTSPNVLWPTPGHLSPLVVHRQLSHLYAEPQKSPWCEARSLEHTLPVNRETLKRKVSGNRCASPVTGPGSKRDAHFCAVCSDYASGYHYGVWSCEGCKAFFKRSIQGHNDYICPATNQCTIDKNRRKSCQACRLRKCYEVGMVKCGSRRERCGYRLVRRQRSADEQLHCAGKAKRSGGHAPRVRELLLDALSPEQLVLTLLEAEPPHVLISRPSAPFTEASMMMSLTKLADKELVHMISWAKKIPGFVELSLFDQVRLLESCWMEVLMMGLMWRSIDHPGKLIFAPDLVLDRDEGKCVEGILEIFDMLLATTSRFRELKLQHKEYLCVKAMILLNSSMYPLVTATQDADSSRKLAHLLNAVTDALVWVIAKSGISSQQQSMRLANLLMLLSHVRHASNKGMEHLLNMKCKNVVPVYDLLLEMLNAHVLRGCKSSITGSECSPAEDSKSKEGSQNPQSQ

[5] = biological target: GAL4 DBD-ERβ LBD (Homo sapiens, UniProt Q92731); test: GAL4 transactivation assay in HEK293T cells; type: cell-based
Chain of GAL4 DBD-ERβ LBD (Q92731 264-498 limits assumed): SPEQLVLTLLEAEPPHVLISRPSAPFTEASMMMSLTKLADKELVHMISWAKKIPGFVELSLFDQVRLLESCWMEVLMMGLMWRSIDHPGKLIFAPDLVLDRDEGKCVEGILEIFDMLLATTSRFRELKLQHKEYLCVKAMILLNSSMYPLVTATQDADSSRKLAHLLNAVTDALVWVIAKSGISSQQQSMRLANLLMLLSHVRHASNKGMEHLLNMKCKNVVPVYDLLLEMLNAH

[6] = biological target: T2, ERα (Homo sapiens, UniProt P03372); type: binding
T2 sequence (P03372 1-595): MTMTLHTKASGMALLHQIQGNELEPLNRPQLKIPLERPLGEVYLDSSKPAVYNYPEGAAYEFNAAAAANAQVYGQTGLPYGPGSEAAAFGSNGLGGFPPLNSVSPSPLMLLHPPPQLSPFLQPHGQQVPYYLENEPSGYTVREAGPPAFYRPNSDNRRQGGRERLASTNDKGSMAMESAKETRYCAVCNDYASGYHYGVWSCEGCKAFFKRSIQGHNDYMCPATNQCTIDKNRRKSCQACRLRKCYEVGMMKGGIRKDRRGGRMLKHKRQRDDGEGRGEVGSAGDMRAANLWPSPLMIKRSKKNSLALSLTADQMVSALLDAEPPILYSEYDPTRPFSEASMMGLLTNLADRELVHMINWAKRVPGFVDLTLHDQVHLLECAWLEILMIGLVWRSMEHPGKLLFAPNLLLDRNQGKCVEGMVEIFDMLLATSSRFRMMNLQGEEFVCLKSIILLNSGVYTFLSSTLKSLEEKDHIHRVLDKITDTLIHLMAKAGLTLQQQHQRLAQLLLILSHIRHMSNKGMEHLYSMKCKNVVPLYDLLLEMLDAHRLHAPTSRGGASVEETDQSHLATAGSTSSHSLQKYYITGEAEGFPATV

[7] = biological target: full length ERβ (Homo sapiens, UniProt Q92731); test: ERE-luciferase transactivation in HeLa cells, full length ERβ; type: cell-based
Chain of full length ERβ (Q92731 whole entry): as the sequence (Q92731 whole entry, the tested form may be a part) above

[8] = biological target: T1, ERβ; conditions: radioligand binding assay; cited from earlier work
[9] = biological target: T1, ERβ; conditions: transiently transfected MCF-7 cells; cited from earlier work
[10] = biological target: T2, ERα; conditions: transiently transfected MCF-7 cells; cited from earlier work
[11] = biological target: T1, ERβ; conditions: cited from earlier work

For `C=Cc1cc(O)cc2nc(-c3ccc(O)c(F)c3)oc12` [ERB-041], the “Efficacy in rheumatoid arthritis” value [1] is listed as “failed to demonstrate efficacy”.
For goserelin acetate, the “DSF primary screen: change in melting temperature of ERβ LBD” value (from here on “DSF primary screen: change”) [2] was “elicited changes in the protein melting temperature”.
With `C[C@@H](CO)CCC[C@@H](C)[C@H]1CC[C@H]2[C@@H]3CC=C4C[C@@H](O)CC[C@]4(C)[C@H]3CC[C@]12C` [27-hydroxycholesterol, reference compound] the “LNCaP cell proliferation (cell viability)” value [3] was “Suppression of proliferation”.
In the case of medicarpin, the “β-selectivity (fold)” value [4] is reported as “greater than 2 fold”.
For `CC/C(=C(/CC)c1ccc(O)cc1)c1ccc(O)cc1` [diethylstilbestrol, reference compound], the “Binding to ERβ in FP (competition with fluorescein labeled E2), result in words” value (“Binding to ERβ in FP” for short) [4] was “binders”.
For `CCN(CC)CCOc1ccc(C(=C(Cl)c2ccccc2)c2ccccc2)cc1` [clomiphene citrate], the “DSF primary screen: change” value [2] was “putative binders”, the “Binding to ERβ in FP” value [4] was “binders” and the IC50 [5] was 221 nM.
In the case of `Cc1c2oc3c(C)ccc(C(=O)N[C@@H]4C(=O)N[C@H](C(C)C)C(=O)N5CCC[C@H]5C(=O)N(C)CC(=O)N(C)[C@@H](C(C)C)C(=O)O[C@@H]4C)c3nc-2c(C(=O)N[C@@H]2C(=O)N[C@H](C(C)C)C(=O)N3CCC[C@H]3C(=O)N(C)CC(=O)N(C)[C@@H](C(C)C)C(=O)O[C@@H]2C)c(N)c1=O` [dactinomycin] (I: T[dV]P[Sar][NMeV] / II: T[dV]P[Sar][NMeV]; ester I:1-I:C, II:1-II:C; linker I:N-II:N via Actinocin(9to1)), the “DSF primary screen: change” value [2] is reported as “elicited changes in the protein melting temperature”.
With `C[C@]12CC[C@@H]3c4ccc(O)cc4CC[C@H]3[C@@H]1C[C@@H](O)[C@@H]2O` [estriol] the “Binding to ERβ in FP” value [4] was “binders; also recorded: greater relative affinity than estrone”.
In the case of `CC[C@]1(O)CC[C@H]2[C@@H]3CCC4=CCCC[C@@H]4[C@H]3CC[C@@]21C` [ethylestrenol], the “DSF primary screen: change” value [2] is reported as “putative binders”.
For `CCOC(=O)C1=C(C)NC(C)=C(C(=O)OC)C1c1cccc(Cl)c1Cl` (centres unmarked) [felodipine], the “DSF primary screen: change” value [2] was “showed up as hits in the primary assay”.
With `C[C@H]1CCC[C@H](O)CCCCCc2cc(O)cc(O)c2C(=O)O1` [zeranol] the “Binding to ERα in FP (competition with fluorescein labeled E2), result in words” value (shortened to “Binding to ERα in FP”) [6] was “binders”.
In the case of `COc1cc(/C=C/c2ccc(O)cc2)cc(OC)c1` [pterostilbene], the “DSF primary screen: change” value [2] is reported as “putative binders”.
With `C#C[C@]1(O)CC[C@H]2[C@@H]3CCc4cc(O)ccc4[C@H]3CC[C@@]21C` [ethinyl estradiol] the “DSF primary screen: change” value [2] was “putative binders”.
In the case of `C[C@@H]1[C@H](O)[C@@H](C)/C=C/C=C/CC/C=C/C=C/C=C/C=C/C(O[C@H]2O[C@H](C)[C@@H](O)[C@H](N)[C@@H]2O)CC2O[C@](O)(CC(O)C(O)CCC(O)CC(O)CC(O)CC(=O)O[C@H]1C)CC(O)C2C(=O)O` (some centres unmarked) [nystatin], the “DSF primary screen: change” value [2] is reported as “elicited changes in the protein melting temperature”.
For `C[C@]12CC[C@H](O)CC1=CC[C@@H]1[C@@H]2CC[C@]2(C)C(=O)CC[C@@H]12` [DHEA, dehydroepiandrosterone], the “Tm of His6-hERβ LBD purification product” value [2] was ~ 55 ºC, the “DSF primary screen: change” value [2] was “putative binders” and the “Binding to ERβ in FP” value [4] was “binders”. For the same molecule, the “β-selectivity (fold)” value [4] was “greater than 2 fold”, the “Binding to ERα in FP” value [6] was “binders” and the “Relative transactivation activity, full length ERβ” value ([7]; 1 μM final concentration) was “greater capacity for ERβ activation than the selective partial agonist 27-hydroxycholesterol”. For the same molecule, the “ER subtype selectivity of transactivation (ERβ versus ERα)” value ([7]; full length ERs, 1 μM) was “strong ERβ selectivity”, the “LNCaP cell proliferation (cell viability)” value [3] was “Suppression of proliferation” and the “Ki for ERβ compared with ERα” value [8] was “lower for ERβ than ERα”.
With `CCCCCC[C@H]1C(=O)O[C@H](C)[C@H](NC(=O)c2cccc(NC=O)c2O)C(=O)O[C@@H](C)[C@@H]1OC(=O)CC(C)C` [antimycin A] the “DSF primary screen: change” value [2] was “elicited changes in the protein melting temperature”.
For `O=c1cc(-c2ccc(O)c(O)c2)oc2cc(O)cc(O)c12` [luteolin], the “β-selectivity (fold)” value [4] is given as “greater than 2 fold”, the “Activation of ERβ” value [9] is given as “very slight effect on ERβ” and the “Activation of ERα” value [10] is given as “no effect on ERα”.
In the case of `CC[C@H](c1ccc(O)cc1)[C@@H](CC)c1ccc(O)cc1` [hexestrol, reference compound], the “DSF primary screen: change” value [2] is reported as “putative binders”, the “Binding to ERβ in FP” value [4] is reported as “binders” and the “Binding to ERα in FP” value [6] is reported as “binders”. For the same molecule, the “Ki for ERβ compared with ERα” value [8] was “the same for both isoforms”.
For `C[C@]12CC[C@H]3C(=CCc4cc(O)ccc43)[C@@H]1CCC2=O` [equilin], the “DSF primary screen: change” value [2] was “putative binders”.
With `O=C1C[C@@H](c2ccc(O)cc2)Oc2cc(O)cc(O)c21` [naringenin] the “DSF primary screen: change” value [2] was “putative binders” and the “β-selectivity (fold)” value [4] was “greater than 2 fold”.
In the case of `c1ccc2c(Cc3c[nH]c4ccccc34)c[nH]c2c1` [3,3’-diindolylmethane], the “Selectivity of binding to ERβ” value [11] is given as “did not bind selectively to ERβ”.
In the case of `C[C@]12CC[C@H]3[C@@H](CC=C4C[C@@H](O)CC[C@@]43C)[C@@H]1CC[C@@H]2O` [5-androstenediol], the ER subtype selectivity [11] is listed as “ERβ selective”.
